Measurements reported in patent US4545993A, “1,2-Benzopyran-6-yl acetic acid compound and pharmaceutical compositions containing said compounds” (priority 1981, dated 1985).

What was measured:
[1] = Acute toxicity, oral, number of deaths up to 72 hours; conditions: mouse, in vivo
Description: Groups of 10 male dd mice weighing some 18 g, were orally administered 800 mg/Kg of each of the examined drugs and the number of deaths up to 72 hours later was recorded.

[2] = tested on: stretching after acetic acid (male dd mice); assay: Analgesic effects by acetic acid writhing test; format: in vivo; conditions: oral, 0.6% acetic acid i.p.
Description: Thirty minutes after the examined drug was orally given, 0.1 ml/10 g of 0.6% acetic acid was intraperitoneally administered to groups of 10 male dd mice weighing some 18 g. The number of stretching was calculated during an observation period of 15 to 20 minutes after acetic acid treatment. The average inhibition rate of stretching among 8 animals was regarded as the inhibition rate of the drug, excluding 2 animals showing maximum and minimum numbers of stretching.

[3] = tested on: pseudopain reactions (dd mice); assay: Analgesic effects by a modified Haffner method; format: in vivo; conditions: oral, with 2 mg/Kg morphine hydrochloride s.c.
Description: Groups of 10 dd mice were orally administered the examined drugs and 30 minutes later 2 mg/Kg of morphine hydrochloride, the threshhold dose, was subcutaneously injected. At 15, 30, 45 and 60 minute intervals thereafter, the root of the mouse's tail was squeezed with a Kocher's forcepts.

[4] = 800 mg/Kg, oral, male dd mice, up to 72 hours

SMILES | mortality at 72 h ([1]; po, 800 mg/kg) [%] | Analgesic effects (acetic acid writhing test; average inhibition rate of stretching) ([2]; 50 mg/Kg) [%] | Analgesic effects (acetic acid writhing test; average inhibition rate of stretching) ([2]; 100 mg/Kg) [%] | mortality at 72 h [1, 4] [%] | Analgesic effects (modified Haffner method) ([3]; 50 mg/Kg) [%] | Analgesic effects (modified Haffner method) ([3]; 100 mg/Kg) [%]
CCCCC1C(=O)N(c2ccccc2)N(c2ccccc2)C1=O [Phenylbutazone, reference compound] | 60 |  |  |  |  | 
Cc1c(N(C)C)c(=O)n(-c2ccccc2)n1C [Aminopyrine, reference compound] |  | 18 | 57 | 80 | 20 | 55
CC(C(=O)O)c1cc(Cl)c2c(c1)CCC(C)(C)O2 (centres unmarked) [Compound 6, 2-(2,2-dimethyl-8-chlorochroman-6-yl)propionic acid] |  | 27 | 68 | 30 | 30 | 60
CC(C(=O)O)c1cc(F)c2c(c1)C=CC(C)(C)O2 (centres unmarked) [Compound 1, 2-(2,2-dimethyl-8-fluoro-1,2-benzopyran-6-yl)propionic acid] |  | 59 | 76 | 0 | 40 | 70
CC(C(=O)O)c1cc(Cl)c2c(c1)C=CC(C)(C)O2 (centres unmarked) [Compound 3, 2-(2,2-Dimethyl-8-chloro-1,2-benzopyran-6-yl)propionic acid] |  |  |  | 0 | 20 | 65
CC(C(=O)O)c1cc(Cl)c2c(c1)CCCO2 (centres unmarked) [Compound 7, 2-(8-Chlorochroman-6-yl)propionic acid] |  |  |  | 0 |  | 
CC(C(=O)O)c1ccc2c(c1)C=CC(C)(C)O2 (centres unmarked) [Compound 2, 2-(2,2-Dimethyl-1,2-benzopyran-6-yl)propionic acid] |  | 44 | 76 | 0 | 25 | 50
O=C(O)Cc1cc(Cl)c2c(c1)C=CCO2 [Compound 5, (8-Chloro-1,2-benzopyran-6-yl)acetic acid] |  |  |  |  | 35 | 70
CC(C(=O)O)c1cc(Cl)c2c(c1)C=CCO2 (centres unmarked) [Compound 4, 2-(8-Chloro-1,2-benzopyran-6-yl)propionic acid] |  | 36 | 61 | 30 | 30 | 55
